How the values were obtained:
[1] = LNP hydrodynamic diameter and polydispersity index by dynamic light scattering (DLS); type: physicochemical; details: LNP: 47.5% ionizable lipid, 40% cholesterol, 2.5% PEG-2000 DMG, 10% DPSC, N/P 4-8
Experimental: (§1) LNPs were prepared with 47.5% Ionizable Lipid (e.g., a compound provided herein): 40% cholesterol: 2.5% PEG-2000 DMG; and 10% DPSC and an N/P ratio range of 4-8. LNPs were formed by microfluidic mixing of the lipid and NA solutions using a Precision Nanosystems NanoAssemblr Spark or Benchtop series Instruments, according to the manufacturers protocol. A ratio of aqueous to organic solvent of approximately 2:1 or 3:1 was maintained during mixing using differential flow rates. After mixing, LNPs were collected, diluted in phosphate buffer saline (PBS) or Tris-buffered saline (TBS) (approximately 1:1 v/v). Further buffer exchange was conducted using dialysis in PBS or TBS at 4° C. for 4 to 24 hours against a 20 kDa filter. After this initial dialysis, each individual LNP preparation was characterized via dynamic light scattering (DLS) to measure the size (e.g., diameter) and polydispersity. LNPs falling within specific diameter and polydispersity ranges were pooled, and further dialyzed against PBS or TBS at 4° C. for 1 to 4 hours against a 100 kDa dialysis cassette. After the second dialysis, LNPs were sterile filtered using 0.22 μm filter and stored at 4° C. for further use.
LNP hydrodynamic diameter and polydispersity index (PDI) were measured using high throughput dynamic light scattering (DLS) (Stunner, Unchained Labs). LNPs were diluted 1×TBS or PBS to an appropriate concentration and analyzed.

[2] = LNP encapsulation efficiency by Ribogreen assay; type: physicochemical; details: LNP: 47.5% ionizable lipid, 40% cholesterol, 2.5% PEG-2000 DMG, 10% DPSC, N/P 4-8
Experimental: as §1
RNA concentration and encapsulation efficiency were determined by Ribogreen assay (BioTek Synergy LX plate reader).

[3] = tested on: Lung; assay: Barcoded pooled LNP biodistribution screen, fold above input (FAI) in lung; type: in vivo; details: pooled LNP IV tail vein, mice, 4 hours post-dose
Experimental: (§2) Male and female mice aged approximately 8-12 weeks were used for studies described by the present Example. Each mouse was temporarily restrained and pooled LNP was administered IV via tail vein injection in up to five animals per experiment. Age-matched mice was also used to administer vehicle (1×TBS) via tail vein injection in up to three animals per experiment. Additional routes of administration can also be conducted including intracerebral ventricular (ICV), intracisterna manga (ICM), intrathecal (IT), intramuscular (IM), nebulization, intranasal (IN), subcutaneous (SC), intraarticular, and intradermal (ID). At 4 hours post-dose, tissues including liver, spleen, bone marrow, testes, gastrocnemius, quadricep, lung, heart, kidney, and pancreas may be collected for analysis.
Liver, kidney, lung, and muscle (e.g. skeletal and cardiac) tissues may be mechanically, and then enzymatically digested using a mixture of proteinases, then passed through a 70 μm filter to generate single cell suspensions. Spleen tissues were mechanically digested to generate single cell suspensions. Tissues were treated with ACK buffer to lyse red blood cells, and then stained with fluorescently labeled antibodies for flow cytometry and fluorescence-activated cell sorting (FACS). Commercially available antibodies were used in the present example. Using a BD FACSMelody (Becton Dickinson), samples were acquired via flow cytometry to generate gates prior to sorting. In general, the gating structure was size→singlet cells→live cells→cells of interest. T cells were defined as CD45+CD3+, monocytes are defined as CD45+CD11b+, and B cells are defined as CD45+CD19+. Endothelial cells were defined as CD31+, monocytes and Kupffer cells as CD45+CD11b+ and hepatocytes and myocytes were defined as CD31−/CD45− in the liver and muscle, respectively. Tissues from vehicle-dosed mice were used to set the gates for sorting.
RNA from tissues were extracted using the Reliaprep RNA extraction kit, and libraries were prepared using the RNAseq kit, and sequenced on either a MiSeq or NextSeq500.
(§3) To screen for preferential LNP delivery to a target tissues, the relative abundance of each barcode in one or more target tissues was measured and compared to the relative abundance of each barcode to its corresponding relative input abundance to determine fold above input (FAI) for each barcode. […]
(§4) The FAI is the normalized relative abundance of a barcode in a selected sample as compared to its frequency in the input. […] The FAI value of the barcode was calculated by normalizing the relative abundance in the barcode sequence counts in the isolated samples to its relative abundance in the administration input. […]

[4] = tested on: Liver; assay: Barcoded pooled LNP biodistribution screen, fold above input (FAI) in liver; type: in vivo; details: pooled LNP IV tail vein, mice, 4 hours post-dose
Experimental: as §2
(§5) Liver, kidney, lung, and muscle (e.g. skeletal and cardiac) tissues may be mechanically, and then enzymatically digested using a mixture of proteinases, then passed through a 70 μm filter to generate single cell suspensions. Spleen tissues were mechanically digested to generate single cell suspensions. Tissues were treated with ACK buffer to lyse red blood cells, and then stained with fluorescently labeled antibodies for flow cytometry and fluorescence-activated cell sorting (FACS). Commercially available antibodies were used in the present example. Using a BD FACSMelody (Becton Dickinson), samples were acquired via flow cytometry to generate gates prior to sorting. […]
as §3, §4

[5] = tested on: Spleen; assay: Barcoded pooled LNP biodistribution screen, fold above input (FAI) in spleen; type: in vivo; details: pooled LNP IV tail vein, mice, 4 hours post-dose
Experimental: as §2, §5, §3, §4

[6] = screening experiment of Table 4
[7] = screening experiment of Table 5
[8] = screening experiment of Table 6

| Compound | Mean Diameter (nm) [1] [nm] | Mean PDI [1] | Mean Encapsulation Efficiency (%) [2] [%] | FAI (Lung) ([3]; screening experiment of Table 3) | FAI (Lung) [3, 6] | FAI (Lung) [3, 7] | FAI (Lung) [3, 8] | FAI (Liver) [4, 6] | FAI (Liver) [4, 7] | FAI (Liver) [4, 8] | FAI (Spleen) [5, 6] | FAI (Spleen) [5, 7] | FAI (Spleen) [5, 8] |
| --- | --- | --- | --- | --- | --- | --- | --- | --- | --- | --- | --- | --- | --- |
| CC/C=C\CCCCOC(CCC(=O)OCC(COC(=O)CCCCCCC/C=C\C/C=C\CCCCC)(COC(=O)CCCCCCC/C=C\C/C=C\CCCCC)COC(=O)OCC1CCCN(CC)C1)OCCCC/C=C\CC (stereo not shown) [Compound 7-68, 2-(((4,4-bis(((Z)-oct-5-en-1-yl)oxy)butanoyl)oxy)methyl)-2-(((((1-ethylpiperidin-3-yl)methoxy)carbonyl)oxy)methyl)propane-1,3-diyl (9Z,9′Z,12Z,12′Z)-bis(octadeca-9,12-dienoate)] | 92.9 | 0.14 | 90.0 | – | – | – | – | – | – | – | – | – | – |
| CC/C=C\CCCCOC(CCC(=O)OCC(COC(=O)CCCCCCC/C=C\C/C=C\CCCCC)(COC(=O)CCCCCCC/C=C\C/C=C\CCCCC)COC(=O)OCCCN(C)CC)OCCCC/C=C\CC [Compound 7-69, 2-(((4,4-bis(((Z)-oct-5-en-1-yl)oxy)butanoyl)oxy)methyl)-2-((((3-(ethyl(methyl)amino)propoxy)carbonyl)oxy)methyl)propane-1,3-diyl (9Z,9′Z,12Z,12′Z)-bis(octadeca-9,12-dienoate)] | 86.1 | 0.15 | 88.5 | – | – | – | – | – | – | – | – | – | – |
| CC/C=C\CCCCOC(CCC(=O)OCC(COC(=O)CCCCCCC/C=C\C/C=C\CCCCC)(COC(=O)CCCCCCC/C=C\C/C=C\CCCCC)COC(=O)NCCN1CCCC1)OCCCC/C=C\CC [Compound 7-70, 2-(((4,4-bis(((Z)-oct-5-en-1-yl)oxy)butanoyl)oxy)methyl)-2-((((2-(pyrrolidin-1-yl)ethyl)carbamoyl)oxy)methyl)propane-1,3-diyl (9Z,9′Z,12Z,12′Z)-bis(octadeca-9,12-dienoate)] | 88.8 | 0.13 | 87.0 | – | – | – | – | – | – | – | – | – | – |
| CCCCC/C=C\C/C=C\CCCCCCCCC(CCCCCCCC/C=C\C/C=C\CCCCC)OC(=O)CCCN(C)C [MC3] | – | – | – | 0.50 | 0.86 | 1.51 | 1.68 | 1.00 | 0.30 | 0.73 | 1.57 | 0.61 | 1.50 |

Reference: US20240358841A1, “NANOMATERIALS COMPRISING TETRAVALENT LIPID COMPOUNDS” (Beam Therapeutics Inc., priority 2021, published 2024)
